Measurements: PMC4161306, “Regulation of Arabidopsis Flowering by the Histone Mark Readers MRG1/2 via Interaction with CONSTANS to Modulate FT Expression” (PLoS Genetics, 2014)

How the values were obtained:
[1] = In vitro peptide pull-down from nuclear extracts with mass spectrometry; assay type: binding, Arabidopsis; settings: biotinylated H3 peptides (amino acids 21 to 44) on streptavidin-coated beads
Experimental: An in vitro peptide pull-down assay was used to identify the proteins that bind to histone H3 tail methylated at K36. Biotinylated histone H3 peptides (amino acids 21 to 44), with either unmethylated (control) or tri-methylated K36, were immobilized on the streptavidin-coated beads and incubated with Arabidopsis nuclear extracts. […] Members in this group have the same domain organization, with a chromodomain (chromatin organization modifier domain) near the N-terminus, and a MRG domain near the C-terminus (Figure S1). MRG2 has a homolog in Arabidopsis, MRG1, which shares with MRG2 49% identity and 65% similarity at the amino acid sequence level.

[2] = test system: chromodomain of MRG2 (His-MRG2N); test: Dot-blot / pull-down binding assay, His-MRG2N with methylated H3 peptides; set-up: species or system Arabidopsis; settings: Figure 1A, N-terminal His-tagged chromodomain, peptides residues 1–21 (K4, K9) or 21–44 (K27, K36)
Experimental: (§1) For the dot-blot binding assay, MRG1N (1–321, AT4G37280) and MRG2N (1–369, AT1G02740) cDNA were amplified by primers MRG1-1/MRG1-2 and MRG2-1/MRG2-2, respectively, and cloned into a pET-30a vector (Novagen, www.novagen.com). Site mutation was generated using a Takara MutanBEST Kit (http://www.takara-bio.com) with primers MRG2-3/MRG2-4. The in vitro binding assay of the chromodomain containing proteins with the histone peptides were performed as described previously. Methylated H3K4 (H3K4me1/2/3, residues 1–21), H3K9 (H3K9me1/2/3, residues 1–21), H3K27 (H3K27me1/2/3, residues 21–44), and H3K36 (H3K36me1/2/3, residues 21–44) peptides were synthesized by Scilight Biotechnology (http://www.scilight-peptide.com). Anti-monomethyl-H3K4 (07-436), anti-dimethyl-H3K4 (07-030), anti-trimethyl-H3K4 (07-473), anti-trimethyl-H3K9 (07-442), and anti-trimethyl-H3K27 (07-449) were purchased from Millipore (http://www.millipore.com), and anti-monomethyl-H3K36 (ab9048), anti-dimethyl-H3K36 (ab9049), and anti-trimethyl-H3K36 (ab9050) were purchased from Abcam (http://www.abcam.com).

[3] = test system: chromodomain of MRG1 (His-MRG1N); test: Dot-blot / pull-down binding assay, His-MRG1N with methylated H3 peptides; set-up: species or system Arabidopsis; settings: Figure 1A, N-terminal His-tagged chromodomain, peptides residues 1–21 (K4, K9) or 21–44 (K27, K36)
Experimental: as §1

[4] = test system: Y87A substitution in MRG2 chromodomain (His-MRG2N(Y87A)); test: Dot-blot binding assay, His-MRG2N(Y87A) with methylated H3 peptides; set-up: species or system Arabidopsis; settings: Figure 7B; Tyr87Ala mutation in MRG2
Experimental: as §1

EAF3 = settings: ref [29]; cited from earlier work
Excerpt: Firstly, via their chromodomain, MRG1/2 proteins act as readers that recognize methylated H3K4 and H3K36.

Substance	protein bound from nuclear extract [1]	binding to chromodomain of MRG2 [2]	binding to chromodomain of MRG1 [3]	association with MRG2 Y87A [4]	binding to EAF3 (EAF3)
H3 peptides tri-methylated at K36: Biotinylated histone H3 peptides (amino acids 21 to 44) with tri-methylated K36	identified MRG2				
H3K4me2: methylated H3K4 peptide, residues 1–21 (dot-blot)		could bind	could bind		
H3K4me3: methylated H3K4 peptide, residues 1–21 (dot-blot), Scilight Biotechnology		could bind	could bind	disrupted its association	only very weakly
H3K36me2: methylated H3K36 peptide, residues 21–44 (dot-blot)		could bind	could bind		
H3K36me3: methylated H3K36 peptide, residues 21–44 (dot-blot)		could bind	could bind	disrupted its association	bind
mono-methylated H3K4: methylated H3K4 peptide, residues 1–21 (dot-blot)			not		
mono-methylated H3K36: methylated H3K36 peptide, residues 21–44 (dot-blot)			not		
